biological target: T1, 5HT6-human recombinant receptor (Homo sapiens, UniProt P50406); assay: Binding to serotonin receptor 5-HT6 ([3H]-LSD radioligand displacement); details: membranes of HEK-293 cells expressing the receptor; radioligand [3H]-LSD 2.7 nM; 60 minutes at 37° C; triplicate
T1 construct: purchased Receptor Biology; host or cells: HEK-293 cell membranes
Protocol: I) Binding to Serotonin Receptor 5-HT6
Cell membranes of HEK-293 cells expressing the 5HT6-human recombinant receptor were supplied by Receptor Biology. In said membranes the receptor concentration is 2.18 pmol/mg protein and the protein concentration is 9.17 mg/ml. The experimental protocol follows the method of B. L. Roth et al. [B. L. Roth, S. C. Craigo, M. S. Choudhary, A. Uluer, F. J. Monsma, Y. Shen, H. Y. Meltzer, D. R. Sibley: Binding of Typical and Atypical Antipsychotic Agents to 5-Hydroxytryptamine-6 and Hydroxytryptamine-7 Receptors. The Journal of Pharmacology and Experimental Therapeutics, 1994, 268, 1403] with the following slight changes. The respective part of the literature description is hereby incorporated by reference and forms part of the disclosure.
The commercial membrane is diluted (1:40 dilution) with the binding buffer: 50 mM Tris-HCl, 10 mM MgCl2, 0.5 mM EDTA (pH 7.4). The radioligand used is [^3H]-LSD at a concentration of 2.7 nM with a final volume of 200 μl. Incubation is initiated by adding 100 μl of membrane suspension, (≈22.9 μg membrane protein), and is prolonged for 60 minutes at a temperature of 37° C. The incubation is ended by fast filtration in a Brandel Cell Harvester through fiber glass filters made by Schleicher & Schuell G F 3362 pretreated with a solution of polyethylenimine at 0.5%. The filters are washed three times with three milliliters of buffer Tris-HCl 50 mM pH 7.4. The filters are transferred to flasks and 5 ml of Ecoscint H liquid scintillation cocktail are added to each flask. The flasks are allowed to reach equilibrium for several hours before counting with a Wallac Winspectral 1414 scintillation counter. Non-specific binding is determined in the presence of 100 μM of serotonin. Tests were made in triplicate. The inhibition constants (Ki, nM) were calculated by non-linear regression analysis using the program EBDA/LIGAND described in Munson and Rodbard, Analytical Biochemistry, 1980, 107, 220, the respective part of which is hereby incorporated by reference and forms part of the disclosure.
The binding of the nitro-substituted phenyl-piperazine compounds to the 5-HT6 receptor was determined as described above.

T1 sequence (P50406 whole entry): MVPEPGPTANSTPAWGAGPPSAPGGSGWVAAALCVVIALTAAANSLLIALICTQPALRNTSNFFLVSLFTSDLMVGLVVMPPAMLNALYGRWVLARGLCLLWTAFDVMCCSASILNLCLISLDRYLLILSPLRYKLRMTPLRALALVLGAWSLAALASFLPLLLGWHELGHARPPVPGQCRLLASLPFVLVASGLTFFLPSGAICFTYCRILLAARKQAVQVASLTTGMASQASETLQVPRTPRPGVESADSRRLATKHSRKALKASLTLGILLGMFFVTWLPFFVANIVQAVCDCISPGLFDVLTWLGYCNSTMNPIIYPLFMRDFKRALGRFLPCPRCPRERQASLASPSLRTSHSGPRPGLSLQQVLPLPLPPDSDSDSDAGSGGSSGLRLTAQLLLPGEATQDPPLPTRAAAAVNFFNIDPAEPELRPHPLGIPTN

Row | Compound | Ki
1 | CN1CCN(c2ccc([N+](=O)[O-])c(NCc3ccc(F)cc3)c2)CC1 [Example 2, (4-Fluoro-benzyl)-[5-(4-methyl-piperazin-1-yl)-2-nitro-phenyl]-amine] | 0.172 µM
2 | CN1CCN(c2ccc([N+](=O)[O-])c(Nn3cccc3)c2)CC1 [Example 5, [5-(4-Methyl-piperazin-1-yl)-2-nitro-phenyl]-pyrrol-1-yl-amine] | 0.481 µM
3 | CN1CCN(c2ccc([N+](=O)[O-])c(Oc3ccccc3)c2)CC1 [Example 7, 1-Methyl-4-(4-nitro-3-phenoxy-phenyl)-piperazine] | 0.0266 µM
4 | CN1CCN(c2ccc([N+](=O)[O-])c(NCc3ccco3)c2)CC1 [Example 11, Furan-2-ylmethyl-[5-(4-methyl-piperazin-1-yl)-2-nitro-phenyl]-amine] | 0.0612 µM
5 | O=[N+]([O-])c1ccc(N2CCN(CCO)CC2)cc1NCCc1ccccc1 [Example 12, 2-[4-(4-Nitro-3-phenethylamino-phenyl)-piperazin-1-yl]-ethanol] | 6.33 µM
6 | Cc1ccccc1OCCNc1cc(N2CCNCC2)ccc1[N+](=O)[O-] [Example 13, (2-Nitro-5-piperazin-1-yl-phenyl)-(2-o-tolyloxy-ethyl)-amine] | 0.163 µM
7 | CN1CCN(c2ccc([N+](=O)[O-])c(N3CCOCC3)c2)CC1 [Example 15, 4-[5-(4-Methyl-piperazin-1-yl)-2-nitro-phenyl]-morpholine] | 2.71 µM
8 | CN1CCN(c2ccc([N+](=O)[O-])c(-n3nc(-c4ccccc4)c4ccccc4c3=O)c2)CC1 [Example 16, 2-[5-(4-Methyl-piperazin-1-yl)-2-nitro-phenyl]-4-phenyl-2H-phthalazin-1-one] | 0.732 µM
9 | CC1CN(c2ccc([N+](=O)[O-])c(NCCOc3ccc(Cl)cc3)c2)CC(C)N1 (stereo not drawn) [Example 17, [2-(4-Chloro-phenoxy)-ethyl]-[5-(3,5-dimethyl-piperazin-1-yl)-2-nitro-phenyl]-amine] | 5 µM
10 | Cc1cc(C)n(-c2cc(N3CCN(C)CC3)ccc2[N+](=O)[O-])n1 [Example 21, 1-[3-(3,5-Dimethyl-pyrazol-1-yl)-4-nitro-phenyl]-4-methyl-piperazine] | 0.249 µM
11 | O=[N+]([O-])c1ccc(N2CCNCC2)cc1NCc1ccccc1 [Example 22, Benzyl-(2-nitro-5-piperazin-1-yl-phenyl)-amine] | 0.0275 µM
12 | CN1CCN(c2ccc([N+](=O)[O-])c(NCCc3ccccc3)c2)CC1 [Example 23, [5-(4-Methyl-piperazin-1-yl)-2-nitro-phenyl]-phenethyl-amine] | 0.119 µM
13 | O=[N+]([O-])c1ccc(N2CCNCC2)cc1NCCOc1ccccc1 [Example 30, (2-Nitro-5-piperazin-1-yl-phenyl)-(2-phenoxy-ethyl)-amine] | 0.114 µM
14 | Cc1cc(C)n(-c2cc(N3CCNCC3)ccc2[N+](=O)[O-])n1 [Example 32, 1-[3-(3,5-Dimethyl-pyrazol-1-yl)-4-nitro-phenyl]-piperazine] | 0.482 µM
15 | O=[N+]([O-])c1ccc(N2CCNCC2)cc1NCCc1ccccc1 [Example 33, (2-Nitro-5-piperazin-1-yl-phenyl)-phenethyl-amine] | 0.0331 µM
16 | O=[N+]([O-])c1ccc(N2CCNCC2)cc1NCc1ccco1 [Example 57, Furan-2-ylmethyl-(2-nitro-5-piperazin-1-yl-phenyl)-amine] | 0.025 µM

Other lines, results leading:

Row | Ki | Compound
17 | 1.27 µM | CN1CCN(c2ccc([N+](=O)[O-])c(NCc3cccnc3)c2)CC1 [Example 24, [5-(4-Methyl-piperazin-1-yl)-2-nitro-phenyl]-pyridin-3-ylmethyl-amine]
18 | 1.51 µM | O=[N+]([O-])c1ccc(N2CCNCC2)cc1NCc1cccnc1 [Example 26, (2-Nitro-5-piperazin-1-yl-phenyl)-pyridin-3-ylmethyl-amine]
19 | 3.78 µM | O=[N+]([O-])c1ccc(N2CCNCC2)cc1N1CCN(Cc2ccccc2)CC1 [Example 27, 1-Benzyl-4-(2-nitro-5-piperazin-1-yl-phenyl)-piperazine]
20 | 4.49 µM | CN1CCN(c2ccc([N+](=O)[O-])c(NC(c3ccccc3)c3ccccc3)c2)CC1 [Example 29, Benzhydryl-[5-(4-methyl-piperazin-1-yl)-2-nitro-phenyl]-amine]
21 | 1.71 µM | CN1CCN(c2ccc([N+](=O)[O-])c(-n3nc(-c4ccccc4)c4ccccc4c3=O)c2)CC1 [Example 31, 2-[5-(4-Methyl-piperazin-1-yl)-2-nitro-phenyl]-4-phenyl-2H-phthalazin-1-one]
22 | 0.0803 µM | CN1CCN(c2ccc([N+](=O)[O-])c(NCCOc3ccc(C(C)(C)C)cc3)c2)CC1 [Example 45, [2-(4-tert-Butyl-phenoxy)-ethyl]-[5-(4-methyl-piperazin-1-yl)-2-nitro-phenyl]-amine]
23 | 0.245 µM | COc1ccc(OCCNc2cc(N3CCN(C)CC3)ccc2[N+](=O)[O-])cc1 [Example 46, [2-(4-Methoxy-phenoxy)-ethyl]-[5-(4-methyl-piperazin-1-yl)-2-nitro-phenyl]-amine]
24 | 0.0191 µM | COc1ccccc1OCCNc1cc(N2CCN(C)CC2)ccc1[N+](=O)[O-] [Example 51, [2-(2-Methoxy-phenoxy)-ethyl]-[5-(4-methyl-piperazin-1-yl)-2-nitro-phenyl]-amine]
25 | 0.0083 µM | O=[N+]([O-])c1ccc(N2CCNCC2)cc1NCc1ccc(Cl)cc1 [Example 52, (4-Chloro-benzyl)-(2-nitro-5-piperazin-1-yl-phenyl)-amine]
26 | 0.0343 µM | O=[N+]([O-])c1ccc(N2CCN(Cc3ccccc3)CC2)cc1NCc1ccccc1 [Example 53, Benzyl-[5-(4-benzyl-piperazin-1-yl)-2-nitro-phenyl]-amine]
27 | 0.0261 µM | Cc1ccccc1OCCNc1cc(N2CCN(C)CC2)ccc1[N+](=O)[O-] [Example 55, [5-(4-Methyl-piperazin-1-yl)-2-nitro-phenyl]-(2-o-tolyloxy-ethyl)-amine]
28 | 0.059 µM | CN1CCN(c2ccc([N+](=O)[O-])c(NCc3ccc(Cl)cc3)c2)CC1 [Example 56, (4-Chloro-benzyl)-[5-(4-methyl-piperazin-1-yl)-2-nitro-phenyl]-amine]
29 | 0.29 µM | O=[N+]([O-])c1ccc(N2CCNCC2)cc1NCCOc1ccc(Cl)cc1 [Example 58, [2-(4-Chloro-phenoxy)-ethyl]-(2-nitro-5-piperazin-1-yl-phenyl)-amine]
30 | 0.0119 µM | CC(Nc1cc(N2CCN(C)CC2)ccc1[N+](=O)[O-])c1ccccc1 (stereo not drawn) [Example 59, [5-(4-Methyl-piperazin-1-yl)-2-nitro-phenyl]-(1-phenyl-ethyl)-amine]

— patent US20080176854A1, “Nitro-Substituted Phenyl-Piperazine Compounds, Their Preparation and Use in Medicaments” (Laboratorios Del Dr. Esteve S.A, priority 2004, published 2008)
